The results in this text go back to paper PMC5548612 (Drug and alcohol dependence, 2017).

Holding throughout (test): competitive radioligand binding
Assay [1] deals with sigma-1 receptor.
Assay [2] concerns the target 5-HT2B receptor (Homo sapiens, UniProt P41595).
Assay [3] addresses T1, 5-HT2C receptor (Homo sapiens, UniProt P28335).
T1 sequence (P28335 33-458): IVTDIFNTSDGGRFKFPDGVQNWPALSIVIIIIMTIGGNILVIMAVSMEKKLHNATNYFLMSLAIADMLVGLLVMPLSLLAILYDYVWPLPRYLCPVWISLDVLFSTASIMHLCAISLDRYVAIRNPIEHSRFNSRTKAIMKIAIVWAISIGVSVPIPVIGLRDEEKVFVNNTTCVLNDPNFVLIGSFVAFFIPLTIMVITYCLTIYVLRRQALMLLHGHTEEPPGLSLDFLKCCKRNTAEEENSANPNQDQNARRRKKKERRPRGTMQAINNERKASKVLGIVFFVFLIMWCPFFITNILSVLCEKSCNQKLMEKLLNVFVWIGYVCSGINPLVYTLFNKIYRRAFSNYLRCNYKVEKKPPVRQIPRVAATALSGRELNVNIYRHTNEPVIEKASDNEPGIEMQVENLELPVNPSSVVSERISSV

Each structure is given as a SMILES string.

Sequence of 5-HT2B receptor (P41595 whole entry): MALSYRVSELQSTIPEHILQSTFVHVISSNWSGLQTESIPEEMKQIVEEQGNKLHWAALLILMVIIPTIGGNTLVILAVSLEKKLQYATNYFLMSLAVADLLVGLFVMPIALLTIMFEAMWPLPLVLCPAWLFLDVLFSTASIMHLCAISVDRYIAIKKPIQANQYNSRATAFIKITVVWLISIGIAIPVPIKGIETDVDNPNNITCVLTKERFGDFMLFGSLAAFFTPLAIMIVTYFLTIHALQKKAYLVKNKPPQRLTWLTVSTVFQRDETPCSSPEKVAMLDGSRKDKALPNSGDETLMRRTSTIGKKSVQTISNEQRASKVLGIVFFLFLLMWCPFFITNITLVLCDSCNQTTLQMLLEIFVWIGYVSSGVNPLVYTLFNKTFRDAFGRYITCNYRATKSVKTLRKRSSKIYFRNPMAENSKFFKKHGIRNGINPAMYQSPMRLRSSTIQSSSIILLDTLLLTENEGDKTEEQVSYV

The Ki is the equilibrium dissociation constant of an inhibitor or competing ligand from its target. As to `CN[C@@H](C)C(=O)c1ccc(C)cc1` [S-MEPH, S-mephedrone], the Ki in assay [1] worked out at 1500 nM; in assay [2], 857 nM; in assay [3] it was 3.9 µM.
